The term IC50 denotes the midpoint of a concentration-inhibition curve.

IC50 and Hemolytic activity data for 18 compounds are collected here from patent EP2265631B1, “NOVEL ANTIMICROBIAL PEPTIDES AND THEIR APPLICATION” (Ustav Organicke Chemie a Biochemie Akademie Ved Ceske …, priority 2008, dated 2009).

Ends that are not written are not given here. Peptide text beside a SMILES is read from it. Some results are limits rather than exact numbers.

Assay type in all cases: cell-based
One data set relates to Pseudomonnas aeruginosa. Kind of data set: Determination of antimicrobial activity (MIC, bacterial growth in LB broth). Conditions: minimum inhibitory concentration (MIC) per method, 37°C, 20 h, read-out: Antimicrobial activity IC50 [µM] P.a. As for the experimental part:
(§1) Antimicrobial activity was determined as a quantitative minimum inhibitory concentration (MIC) by observing bacterial growth in the presence of different concentrations of tested peptides. Mid-exponential phase bacteria were added to the solutions of the tested antimicrobial peptide at different concentrations (0.5 to 100 µM) in LB broth in multi-well plates. The plates were incubated at 37°C for 20 h while being continuously shaken in a Bioscreen C instrument (Finland). The absorbance was measured at 540 nm every 15 min and each peptide was tested at least 3 times in duplicate. 1.2.10^3 - 7.5.10^3 CFU of bacteria was routinely used in the experiments. Tetracycline in a concentration range of 0.1 - 50 µM was tested as a standard.

For another data set, the system named is Escherichia coli. The data set is described as above. Conditions: minimum inhibitory concentration (MIC) per method, 37°C, 20 h, read-out: Antimicrobial activity IC50 [µM] E. c. As for the experimental part:
as §1

A further data set has as its system Staphylococcus aureus. Described as above. Conditions: minimum inhibitory concentration (MIC) per method, 37°C, 20 h, read-out: Antimicrobial activity IC50 [µM] S.a. As for the experimental part:
as §1

A further data set relates to Bacilus subtilis. The data set is described as above. The following applies: minimum inhibitory concentration (MIC) per method, 37°C, 20 h, read-out: Antimicrobial activity IC50 [µM] B.s. As for the experimental part:
as §1

A further data set concerns rat red blood cells. Description: Determination of hemolytic activity. The following applies: rat red blood cells (5%), 1 h at 37°C, peptides 1-200 µM. As for the experimental part:
The peptides in the concentration (1-200 µM) were incubated with rat red blood cells (5%) for 1 h at 37°C in a physiological solution at a final volume of 0.2 ml. The samples were then centrifuged for 5 min at 250 g, and the absorbance of the supernatant was determined at 540 nm. Supernatants of red blood cells suspended in physiological solution and in 0.2% TRITON X100 in physiological solution served as controls for zero hemolysis (blank) and 100% hemolysis, respectively. Table 3. Antimicrobial and hemolytic activity of melectin (I) and its synthetic analogs of formulas II/1 to II/18

Regarding “GFLSILKKVLGKVMAHMK-NH2 [II/3, H-Gly-Phe-Leu-Ser-lle-Leu-Lys-Lys-Val-Leu-Gly-Lys-Val-Met-Ala-His-Met-Lys-NH2]”, the half-maximal inhibitory concentration (IC50) in the data set with Pseudomonnas aeruginosa was 14.4 µM; in the data set on Escherichia coli it was 1.8 µM; in the data set with Staphylococcus aureus it was 4.3 µM; with Bacilus subtilis, 1.3 µM. Besides, the Hemolytic activity with rat red blood cells stood at 41.4 µM.

“H-SILKKVLPKVMAHMK-NH2 [II/11, H-Ser-Ile-Leu-Lys-Lys-Val-Leu-Pro-Lys-Val-Met-Ala-His-Met-Lys-NH2]”: the IC50 in the data set on Pseudomonnas aeruginosa was over 100 µM; with Escherichia coli, over 100 µM; in the data set with Staphylococcus aureus, over 100 µM; in the data set on Bacilus subtilis, 21.8 µM. Further, in the data set on rat red blood cells, the Hemolytic activity entry is given as “»200 µM”.

As for `CC[C@H](C)[C@H](NC(=O)[C@H](CO)NC(=O)[C@H](CC(C)C)NC(=O)[C@H](Cc1ccccc1)NC(=O)CN)C(=O)N[C@@H](CC(C)C)C(=O)N[C@@H](CCCCN)C(=O)N[C@@H](CCCCN)C(=O)N[C@H](C(=O)N[C@@H](CC(C)C)C(=O)N1CCC[C@@H]1C(=O)N[C@@H](CCCCN)C(=O)N[C@H](C(=O)N[C@@H](CCSC)C(=O)N[C@@H](C)C(=O)N[C@@H](Cc1c[nH]cn1)C(=O)N[C@@H](CCSC)C(=O)N[C@@H](CCCCN)C(N)=O)C(C)C)C(C)C` [II/15, H-Gly-Phe-Leu-Ser-Ile-Leu-Lys-Lys-Val-Leu-Pro-Lys-Val-Met-Ala-His-Met-Lys-NH2], the IC50 in the data set with Pseudomonnas aeruginosa was 100 µM; in the data set with Escherichia coli, 4.2 µM; with Staphylococcus aureus it was over 100 µM; in the data set on Bacilus subtilis, 1.7 µM. The Hemolytic activity result in the data set on rat red blood cells is listed as “»200 µM”.

For “GFLSILKKVLKVMAHMK-NH2 [II/8, H-Gly-Phe-Leu-Ser-Ile-Leu-Lys-Lys-Val-Leu-... -Lys-Val-Met-Ala-His-Met-Lys-NH2]”, the IC50 with Pseudomonnas aeruginosa stood at 27.5 µM; with Escherichia coli, 1.8 µM; in the data set with Staphylococcus aureus, 5 µM; in the data set with Bacilus subtilis, 0.9 µM. The compound further registered a Hemolytic activity in the data set with rat red blood cells of 22.9 µM.

As to “H-GFLSILKKVLPKVMHAMK-NH2 [II/6, H-Gly-Phe-Leu-Ser-Ile-Leu-Lys-Lys-Val-Leu-Pro-Lys-Val-Met-His-Ala-Met-Lys-NH2]”, the IC50 was found to be 35.1 µM in the data set on Pseudomonnas aeruginosa, 2.1 µM with Escherichia coli, 9.1 µM in the data set with Staphylococcus aureus and 1.1 µM with Bacilus subtilis. The compound also had a Hemolytic activity in the data set with rat red blood cells of 150 µM.

With “H-GFLSILKKVLPKVMAKMK-NH2 [II/4, H-Gly-Phe-Leu-Ser-Ile-Leu-Lys-Lys-Val-Leu-Pro-Lys-Val-Met-Ala-Lys-Met-Lys-NH2]”, the IC50 in the data set with Pseudomonnas aeruginosa is 33.6 µM; in the data set with Escherichia coli, 2.1 µM; in the data set with Staphylococcus aureus it was 16.8 µM; in the data set with Bacilus subtilis it was 0.7 µM. This compound also registered a Hemolytic activity in the data set on rat red blood cells of over 100 µM.

On to “H-GFLSILKKVLP-NH2 [II/12, H-Gly-Phe-Leu-Ser-Ile-Leu-Lys-Lys-Val-Leu-Pro-NH2]”, for which the IC50 was over 100 µM in the data set on Pseudomonnas aeruginosa, 78 µM with Escherichia coli, over 100 µM in the data set on Staphylococcus aureus and 13 µM with Bacilus subtilis. Further, the Hemolytic activity result with rat red blood cells is recorded as “»200 µM”.

Consider “H-GFLSILKKVLKKVMAHMK-NH2 [II/1, H-Gly-Phe-Leu-Ser-Ile-Leu-Lys-Lys-Val-Leu-Lys-Lys-Val-Met-Ala-His-Met-Lys-NH2]”, for which the IC50 came out at 25.3 µM with Pseudomonnas aeruginosa, 1.8 µM in the data set with Escherichia coli, 13.3 µM in the data set on Staphylococcus aureus and 1.4 µM in the data set with Bacilus subtilis. Besides, the Hemolytic activity in the data set with rat red blood cells was 27.3 µM.

As for `CCCC[C@H](NC(=O)[C@H](Cc1c[nH]cn1)NC(=O)[C@H](C)NC(=O)[C@H](CCCC)NC(=O)[C@@H](NC(=O)[C@H](CCCCN)NC(=O)[C@@H]1CCCN1C(=O)[C@H](CC(C)C)NC(=O)[C@@H](NC(=O)[C@H](CCCCN)NC(=O)[C@H](CCCCN)NC(=O)[C@H](CC(C)C)NC(=O)[C@@H](NC(=O)[C@H](CO)NC(=O)[C@H](CC(C)C)NC(=O)[C@H](Cc1ccccc1)NC(=O)CN)[C@@H](C)CC)C(C)C)C(C)C)C(=O)N[C@@H](CCCCN)C(N)=O` [II/18, H-Gly-Phe-Leu-Ser-Ile-Leu-Lys-Lys-Val-Leu-Pro-Lys-Val-Nle-Ala-His-Nle-Lys-NH2] (HELM PEPTIDE1{G.F.L.S.I.L.K.K.V.L.P.K.V.[Nle].A.H.[Nle].K.[am]}$$$$V2.0), the IC50 in the data set on Pseudomonnas aeruginosa was determined as 17.3 µM; with Escherichia coli, 0.75 µM; in the data set with Staphylococcus aureus, 2.5 µM; with Bacilus subtilis it was 0.2 µM.

With “H-GFLSILKKVLAKVMAHMK-NH2 [II/2, H-Gly-Phe-Leu-Ser-Ile-Leu-Lys-Lys-Val-Leu-Ala-Lys-Val-Met-Ala-His-Met-Lys-NH2]”, the IC50 in the data set with Pseudomonnas aeruginosa was determined as 18.3 µM; in the data set with Escherichia coli, 1.6 µM; in the data set on Staphylococcus aureus it was 4.7 µM; in the data set on Bacilus subtilis, 1.3 µM. In addition, in the data set with rat red blood cells, the Hemolytic activity is 29.7 µM.

On to “H-GFLSILKKVLPKVLAHLK-NH2 [II/5, H-Gly-Phe-Leu-Ser-Ile-Leu-Lys-Lys-Val-Leu-Pro-Lys-Val-Leu-Ala-His-Leu-Lys-NH2]”, for which the IC50 is 20 µM in the data set with Pseudomonnas aeruginosa, 1.2 µM with Escherichia coli, 5 µM in the data set with Staphylococcus aureus and 0.8 µM in the data set with Bacilus subtilis. The compound further yielded a Hemolytic activity in the data set with rat red blood cells of 43.7 µM.

With `CCCC[C@H](NC(=O)[C@H](Cc1cnc[nH]1)NC(=O)[C@H](C)NC(=O)[C@H](CCCC)NC(=O)[C@@H](NC(=O)[C@H](CCCCN)NC(=O)[C@@H]1CCCN1C(=O)[C@H](CC(C)C)NC(=O)[C@@H](NC(=O)[C@H](CCCCN)NC(=O)[C@H](CCCCN)NC(=O)[C@H](CC(C)C)NC(=O)[C@@H](NC(=O)[C@H](CO)NC(=O)[C@H](CC(C)C)NC(=O)[C@H](Cc1ccccc1)NC(=O)CN)[C@@H](C)CC)C(C)C)C(C)C)C(=O)N[C@@H](CCCCN)C(N)=O` [II/18, H-Gly-Phe-Leu-Ser-Ile-Leu-Lys-Lys-Val-Leu-Pro-Lys-Val-Nle-Ala-His-Nle-Lys-NH2] (HELM PEPTIDE1{G.F.L.S.I.L.K.K.V.L.P.K.V.[Nle].A.H.[Nle].K.[am]}$$$$V2.0), in the data set with rat red blood cells, the Hemolytic activity came out at 50 µM.

Turning to “H-GFLSILKKVGPKVMAHMK-NH2 [II/14, H-Gly-Phe-Leu-Ser-Ile-Leu-Lys-Lys-Val-Gly-Pro-Lys-Val-Met-Ala-His-Met-Lys-NH2]”, the IC50 with Pseudomonnas aeruginosa came out at 80 µM; with Escherichia coli it was 22.5 µM; in the data set on Staphylococcus aureus, 80 µM; in the data set on Bacilus subtilis it was 1.4 µM. Besides, the Hemolytic activity entry with rat red blood cells is given as “»200 µM”.

As for `CC[C@H](C)[C@H](NC(=O)[C@H](CO)NC(=O)[C@H](CC(C)C)NC(=O)[C@H](Cc1cccc2ccccc12)NC(=O)CN)C(=O)N[C@@H](CC(C)C)C(=O)N[C@@H](CCCCN)C(=O)N[C@@H](CCCCN)C(=O)N[C@H](C(=O)N[C@@H](CC(C)C)C(=O)N1CCC[C@H]1C(=O)N[C@@H](CCCCN)C(=O)N[C@H](C(=O)N[C@@H](CCSC)C(=O)N[C@@H](C)C(=O)N[C@@H](Cc1c[nH]cn1)C(=O)N[C@@H](CCSC)C(=O)N[C@@H](CCCCN)C(N)=O)C(C)C)C(C)C` [II/16, H-Gly-1Nal-Leu-Ser-Ile-Leu-Lys-Lys- V al-Leu-Pro-Lys- V al-Met-Ala-His-Met-Lys-NH2] (HELM PEPTIDE1{G.[O=C([C@H](Cc1cccc2ccccc12)N[*:1])[*:2]].L.S.I.L.K.K.V.L.P.K.V.M.A.H.M.K.[am]}$$$$V2.0), the IC50 stood at 17.3 µM in the data set with Pseudomonnas aeruginosa, 0.4 µM in the data set on Escherichia coli, 2.5 µM in the data set with Staphylococcus aureus and 0.4 µM with Bacilus subtilis. In the data set with rat red blood cells, this compound came in with a Hemolytic activity of 25 µM.

With “H-LSILKKVLPKVMAHMK-NH2 [II/10, H-Leu-Ser-Ile-Leu-Lys-Lys- Val-Leu-Pro-Lys-Val-Met-Ala-His-Met-Lys-NH2]”, the IC50 is over 100 µM in the data set with Pseudomonnas aeruginosa, 76.2 µM with Escherichia coli, over 100 µM with Staphylococcus aureus and 7.9 µM with Bacilus subtilis. Besides, the Hemolytic activity result with rat red blood cells is reported as “»200 µM”.

Regarding “H-FLSILKKVLPKVMAHMK-NH2 [II/9, H-Phe-Leu-Ser-Ile-Leu-Lys-Lys-Val-Leu-Pro-Lys-Val-Met-Ala-His-Met-Lys-NH2]”, the IC50 in the data set with Pseudomonnas aeruginosa is 62.1 µM; with Escherichia coli, 9.08 µM; in the data set with Staphylococcus aureus, 38.8 µM; in the data set with Bacilus subtilis, 1.2 µM. Besides, the Hemolytic activity in the data set with rat red blood cells is over 200 µM.

Consider “H-GLSILKKVLKKVMAHMK-NH2 [II/17, H-Gly-...-Leu-Ser-Ile-Leu-Lys-Lys-Val-Leu-Lys-Lys-Val-Met-Ala-His-Met-Lys-NH2]”, for which the Hemolytic activity result with rat red blood cells was “»200 µM”.

“H-GFLSILKKVL-NH2 [II/13, H-Gly-Phe-Leu-Ser-Ile-Leu-Lys-Lys-Val-Leu-NH2]”: the IC50 in the data set on Pseudomonnas aeruginosa came out at 58.7 µM; in the data set with Escherichia coli it was 9.1 µM; in the data set on Staphylococcus aureus, 10.9 µM; with Bacilus subtilis, 2.9 µM. Also, the Hemolytic activity in the data set on rat red blood cells is on record as over 100 µM.
